Laboratory results: paper PMC5880808, “A lever-like transduction pathway for long-distance chemical- and mechano-gating of the mechanosensitive Piezo1 channel” (Nature Communications, 2018)

How the values were obtained:
mPiezo1 [1] = biological target: T1, mPiezo1 (Mus musculus, UniProt E2JF22); experiment: Whole-cell poking-induced currents; format: cell-based; details: for effect on poking currents and inactivation: compound applied to the intracellular side; for increase of poking-induced whole-cell currents: mPiezo1-mRuby2-expressing cells, puffing application of 1 mM Jedi, −80 mV
T1 construct: The full-length mPiezo1 has 2547 amino acids in each monomer; expressed in transfected cells; host or cells: HEK293T
T1 sequence (E2JF22 whole entry): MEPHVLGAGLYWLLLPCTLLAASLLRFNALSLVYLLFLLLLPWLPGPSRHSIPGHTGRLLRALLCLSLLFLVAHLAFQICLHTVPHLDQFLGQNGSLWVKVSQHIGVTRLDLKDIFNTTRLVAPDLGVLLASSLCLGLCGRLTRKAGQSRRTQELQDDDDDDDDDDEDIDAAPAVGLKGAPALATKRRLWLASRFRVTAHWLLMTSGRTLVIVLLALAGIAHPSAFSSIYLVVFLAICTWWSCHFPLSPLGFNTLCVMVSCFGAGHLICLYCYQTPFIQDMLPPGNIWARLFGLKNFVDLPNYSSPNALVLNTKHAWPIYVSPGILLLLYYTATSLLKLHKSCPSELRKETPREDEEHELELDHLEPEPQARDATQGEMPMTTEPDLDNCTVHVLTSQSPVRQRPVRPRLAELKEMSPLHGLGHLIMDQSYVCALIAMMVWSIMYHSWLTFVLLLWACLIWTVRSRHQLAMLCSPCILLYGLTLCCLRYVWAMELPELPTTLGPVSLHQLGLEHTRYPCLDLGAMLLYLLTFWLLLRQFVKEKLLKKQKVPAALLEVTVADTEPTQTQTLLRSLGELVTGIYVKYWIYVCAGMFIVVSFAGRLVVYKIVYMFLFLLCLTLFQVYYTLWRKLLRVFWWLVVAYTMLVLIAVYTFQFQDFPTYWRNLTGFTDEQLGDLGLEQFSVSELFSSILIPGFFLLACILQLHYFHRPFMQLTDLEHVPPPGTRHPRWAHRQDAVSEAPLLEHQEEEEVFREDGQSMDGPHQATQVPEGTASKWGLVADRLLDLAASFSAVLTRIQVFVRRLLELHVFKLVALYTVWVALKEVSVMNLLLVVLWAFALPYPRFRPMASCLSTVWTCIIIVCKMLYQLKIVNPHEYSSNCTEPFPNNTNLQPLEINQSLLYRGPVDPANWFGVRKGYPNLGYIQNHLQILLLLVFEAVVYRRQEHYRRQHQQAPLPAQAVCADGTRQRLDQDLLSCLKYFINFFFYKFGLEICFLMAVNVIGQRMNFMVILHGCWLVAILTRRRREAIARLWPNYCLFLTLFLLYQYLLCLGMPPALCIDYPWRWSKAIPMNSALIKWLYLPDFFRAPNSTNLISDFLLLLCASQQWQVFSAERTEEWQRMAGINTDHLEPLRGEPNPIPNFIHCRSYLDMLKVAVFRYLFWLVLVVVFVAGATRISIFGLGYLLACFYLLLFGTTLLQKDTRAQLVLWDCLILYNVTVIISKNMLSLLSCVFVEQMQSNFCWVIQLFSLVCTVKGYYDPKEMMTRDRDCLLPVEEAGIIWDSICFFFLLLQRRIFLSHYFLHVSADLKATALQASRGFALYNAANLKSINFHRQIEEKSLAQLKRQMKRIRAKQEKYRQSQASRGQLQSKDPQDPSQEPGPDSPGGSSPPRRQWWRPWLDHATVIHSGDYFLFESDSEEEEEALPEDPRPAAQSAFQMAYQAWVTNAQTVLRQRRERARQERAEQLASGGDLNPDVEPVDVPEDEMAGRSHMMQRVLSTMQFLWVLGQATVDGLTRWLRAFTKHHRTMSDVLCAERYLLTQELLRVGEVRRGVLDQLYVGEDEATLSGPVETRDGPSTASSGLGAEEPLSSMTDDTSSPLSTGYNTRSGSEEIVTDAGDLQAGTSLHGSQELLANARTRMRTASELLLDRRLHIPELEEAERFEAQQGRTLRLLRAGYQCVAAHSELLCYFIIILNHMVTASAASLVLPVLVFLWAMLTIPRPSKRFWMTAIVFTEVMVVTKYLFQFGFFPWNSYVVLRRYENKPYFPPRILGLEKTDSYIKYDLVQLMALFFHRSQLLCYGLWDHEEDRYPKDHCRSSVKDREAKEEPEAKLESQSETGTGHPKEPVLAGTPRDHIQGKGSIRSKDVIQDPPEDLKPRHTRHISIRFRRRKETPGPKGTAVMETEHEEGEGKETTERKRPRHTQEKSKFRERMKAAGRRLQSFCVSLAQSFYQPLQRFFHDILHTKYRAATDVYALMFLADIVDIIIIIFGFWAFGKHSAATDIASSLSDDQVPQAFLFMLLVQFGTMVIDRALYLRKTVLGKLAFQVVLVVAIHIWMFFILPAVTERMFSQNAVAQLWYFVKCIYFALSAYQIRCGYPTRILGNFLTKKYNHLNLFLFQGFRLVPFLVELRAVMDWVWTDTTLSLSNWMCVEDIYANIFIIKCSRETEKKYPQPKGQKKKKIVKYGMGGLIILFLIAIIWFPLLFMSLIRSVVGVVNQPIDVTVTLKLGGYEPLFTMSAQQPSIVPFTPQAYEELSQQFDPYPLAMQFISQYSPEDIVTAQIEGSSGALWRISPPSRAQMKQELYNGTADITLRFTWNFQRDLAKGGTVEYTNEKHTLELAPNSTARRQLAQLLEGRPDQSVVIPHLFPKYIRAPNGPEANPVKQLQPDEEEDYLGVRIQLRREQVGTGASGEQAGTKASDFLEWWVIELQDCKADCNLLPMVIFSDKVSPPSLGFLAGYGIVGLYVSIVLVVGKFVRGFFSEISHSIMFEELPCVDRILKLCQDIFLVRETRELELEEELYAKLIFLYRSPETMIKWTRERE
Procedure: Protocols for HEK293T cell culture, transient transfection, and patch-clamp experiments with an Axopatch 200B amplifier (Axon Instruments) or HEKA EPC10 were essentially similar to how previously described[6],[8]. […] The extracellular solution was composed of (in mM) 133 NaCl, 3 KCl, 2.5 CaCl2, 1 MgCl2, 10 HEPES (pH 7.3 with NaOH), and 10 glucose. All experiments were carried out at room temperature. Currents were sampled at 20 kHz, filtered at 2 kHz using the Clampex 10.4 software (Axon Instruments) or Patchmaster software. Leak currents before mechanical stimulations were subtracted offline from the current traces.
Mechanical stimulation was delivered to the cell during the patch-clamp recording at an angle of 80° using a fire-polished glass pipette (tip diameter 3–4 μm) as previously described[5],[6]. Downward movement of the probe toward the cell was driven by a Clampex-controlled piezo-electric crystal micro-stage (E625 LVPZT Controller/Amplifier; Physik Instrument). […] The poking distance shown in Fig. 3 includes the initial distance between the poking pipette and the cell, which cannot be accurately controlled, and the applied poking distance controlled by the Clampex-controlled piezo-electric crystal micro-stage. Thus, the actual poking distance on the cell membrane should be equal to the applied poking distance minus the initial distance between the poking pipette and the cell under recording. In the step-wise poking experiment, the patch was readily lost when the cell was broken at the end of the poking.
Stock solutions of Jedi1 (100 mM), Jedi2 (100 mM), and Yoda1 (30 mM) were solubilized in DMSO and diluted to the desired final concentrations as indicated in the figure legends using external or internal solutions. In Figs. 3a, 5b, and 6e, the compound solutions were puffed onto the cells using a multichannel perfusion system (MPS-2, World Precision Instruments) while continuously recording using a gap-free mode. In other conditions, the compounds were directly added to the recording chamber or pipette solution, and the currents were recorded within 10 min. In Figs. 5b and 6e, we used the Piezo1-KO-HEK cell line in which the endogenous Piezo1 gene is disrupted.

mPiezo1 [2] = biological target: T1, mPiezo1; experiment: SPR binding to immobilized purified protein; details: immobilized mPiezo1 in C12E10, 25 °C
Procedure: We next employed the surface plasmon resonance (SPR) binding assay to examine whether Jedi1/2 bind directly to purified mPiezo1 proteins solubilized in the C12E10 detergent (Supplementary Fig. 2a, b). Based on an amine-coupling method, Piezo1 proteins (50 μg/ml) were optimally immobilized onto a research-grade CM5 sensor chip by using a buffer containing 10 mM sodium acetate (pH 5.0), 150 mM NaCl, 0.026% C12E10, and 0.05% Surfactant P20. […] Given the hydrophilic nature of Jedi1/2, it is possible that the amine-based attachment of the purified Piezo1 protein to the SPR sensor chip might affect the binding. […] Nevertheless, given their low binding affinity, we could not totally exclude the possibility that Jedi1/2 might indirectly activate Piezo1 in the cell.
(§1) Real-time binding and analysis by SPR were conducted on BIAcore T200 instrument (GE Healthcare) at 25 °C. Proteins were immobilized on a research-grade CM5 sensor chip by amine-coupling methods. During the pH scouting process, 10 mM sodium acetate at various pH including 4.0, 4.5, 5.0, and 5.5 and protein concentrations varying between 10 and 100 μg/ml were screened before immobilization. Except pH 4.5 for mPiezo1-(1–2190), pH 5.0 was used for all other proteins, including mPiezo1, CED, Δ15-16, and Δ19-20. All proteins were diluted to 50 μg/ml in buffer containing 10 mM sodium acetate at the abovementioned pH, 0.026% C12E10 detergent, and 150 mM NaCl, except that the soluble CED proteins, which were diluted in 150 mM NaCl without detergent. During the immobilization process, the CM5 sensor was activated with NHS first, allowing the amine-containing proteins to be coupled to the sensor through NHS. […]
(§2) For data collection, compounds at various concentrations were diluted in a running buffer containing 1× PBS, 0.026% detergent C12E10, and 0.05% Surfactant P20 (GE Healthcare Bio-Sciences AB) and injected over the flow cells with at a 30 μl/min flow rate. […] Data were analyzed with the BIAcore T200 evaluation software by fitting to a 1:1 affinity-binding model.

[3] = biological target: T2, C-terminal extracellular domain (CED; 2214–2457) (Mus musculus, UniProt E2JF22); experiment: SPR binding to immobilized purified protein; details: without C12E10 detergent
T2 construct: C-terminal extracellular domain (CED; 2214–2457); made in house
T2 sequence (E2JF22 2214-2457): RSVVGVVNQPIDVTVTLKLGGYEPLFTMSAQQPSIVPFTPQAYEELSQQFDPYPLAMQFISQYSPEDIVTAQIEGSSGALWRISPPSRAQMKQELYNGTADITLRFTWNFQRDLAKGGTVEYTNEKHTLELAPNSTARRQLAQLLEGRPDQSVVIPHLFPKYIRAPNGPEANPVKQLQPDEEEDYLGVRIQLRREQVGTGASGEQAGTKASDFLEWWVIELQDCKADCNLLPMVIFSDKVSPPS
Procedure: Real-time binding and analysis by SPR were conducted on BIAcore T200 instrument (GE Healthcare) at 25 °C. Proteins were immobilized on a research-grade CM5 sensor chip by amine-coupling methods. During the pH scouting process, 10 mM sodium acetate at various pH including 4.0, 4.5, 5.0, and 5.5 and protein concentrations varying between 10 and 100 μg/ml were screened before immobilization. Except pH 4.5 for mPiezo1-(1–2190), pH 5.0 was used for all other proteins, including mPiezo1, CED, Δ15-16, and Δ19-20. All proteins were diluted to 50 μg/ml in buffer containing 10 mM sodium acetate at the abovementioned pH, 0.026% C12E10 detergent, and 150 mM NaCl, except that the soluble CED proteins, which were diluted in 150 mM NaCl without detergent. During the immobilization process, the CM5 sensor was activated with NHS first, allowing the amine-containing proteins to be coupled to the sensor through NHS. Each CM5 sensor had 4 flow cells, and the flow cells 1 and 3 were often left blank as a reference. Diluted Piezo1 wild-type or mutant proteins (50 μg/ml) in their respective buffers were immobilized on the flow cell 2 or flow cell 4 to the similar level as indicated by the “response bound” parameter.
For data collection, compounds at various concentrations were diluted in a running buffer containing 1× PBS, 0.026% detergent C12E10, and 0.05% Surfactant P20 (GE Healthcare Bio-Sciences AB) and injected over the flow cells with at a 30 μl/min flow rate. The proteins and the compounds were allowed to associate for 180 s and then dissociate for 180 s. Data were analyzed with the BIAcore T200 evaluation software by fitting to a 1:1 affinity-binding model.

mPiezo1(1–2190) = biological target: T3, mPiezo1(1–2190) (Mus musculus, UniProt E2JF22); experiment: SPR binding to immobilized purified protein; details: FPLC fraction of trimeric proteins
T3 construct: N-terminal fragment containing residues 1–2190 [mPiezo1(1–2190)]; GST (PreScission site) (cleaved yes); made in house; host or cells: HEK293T
T3 sequence (E2JF22 1-2190): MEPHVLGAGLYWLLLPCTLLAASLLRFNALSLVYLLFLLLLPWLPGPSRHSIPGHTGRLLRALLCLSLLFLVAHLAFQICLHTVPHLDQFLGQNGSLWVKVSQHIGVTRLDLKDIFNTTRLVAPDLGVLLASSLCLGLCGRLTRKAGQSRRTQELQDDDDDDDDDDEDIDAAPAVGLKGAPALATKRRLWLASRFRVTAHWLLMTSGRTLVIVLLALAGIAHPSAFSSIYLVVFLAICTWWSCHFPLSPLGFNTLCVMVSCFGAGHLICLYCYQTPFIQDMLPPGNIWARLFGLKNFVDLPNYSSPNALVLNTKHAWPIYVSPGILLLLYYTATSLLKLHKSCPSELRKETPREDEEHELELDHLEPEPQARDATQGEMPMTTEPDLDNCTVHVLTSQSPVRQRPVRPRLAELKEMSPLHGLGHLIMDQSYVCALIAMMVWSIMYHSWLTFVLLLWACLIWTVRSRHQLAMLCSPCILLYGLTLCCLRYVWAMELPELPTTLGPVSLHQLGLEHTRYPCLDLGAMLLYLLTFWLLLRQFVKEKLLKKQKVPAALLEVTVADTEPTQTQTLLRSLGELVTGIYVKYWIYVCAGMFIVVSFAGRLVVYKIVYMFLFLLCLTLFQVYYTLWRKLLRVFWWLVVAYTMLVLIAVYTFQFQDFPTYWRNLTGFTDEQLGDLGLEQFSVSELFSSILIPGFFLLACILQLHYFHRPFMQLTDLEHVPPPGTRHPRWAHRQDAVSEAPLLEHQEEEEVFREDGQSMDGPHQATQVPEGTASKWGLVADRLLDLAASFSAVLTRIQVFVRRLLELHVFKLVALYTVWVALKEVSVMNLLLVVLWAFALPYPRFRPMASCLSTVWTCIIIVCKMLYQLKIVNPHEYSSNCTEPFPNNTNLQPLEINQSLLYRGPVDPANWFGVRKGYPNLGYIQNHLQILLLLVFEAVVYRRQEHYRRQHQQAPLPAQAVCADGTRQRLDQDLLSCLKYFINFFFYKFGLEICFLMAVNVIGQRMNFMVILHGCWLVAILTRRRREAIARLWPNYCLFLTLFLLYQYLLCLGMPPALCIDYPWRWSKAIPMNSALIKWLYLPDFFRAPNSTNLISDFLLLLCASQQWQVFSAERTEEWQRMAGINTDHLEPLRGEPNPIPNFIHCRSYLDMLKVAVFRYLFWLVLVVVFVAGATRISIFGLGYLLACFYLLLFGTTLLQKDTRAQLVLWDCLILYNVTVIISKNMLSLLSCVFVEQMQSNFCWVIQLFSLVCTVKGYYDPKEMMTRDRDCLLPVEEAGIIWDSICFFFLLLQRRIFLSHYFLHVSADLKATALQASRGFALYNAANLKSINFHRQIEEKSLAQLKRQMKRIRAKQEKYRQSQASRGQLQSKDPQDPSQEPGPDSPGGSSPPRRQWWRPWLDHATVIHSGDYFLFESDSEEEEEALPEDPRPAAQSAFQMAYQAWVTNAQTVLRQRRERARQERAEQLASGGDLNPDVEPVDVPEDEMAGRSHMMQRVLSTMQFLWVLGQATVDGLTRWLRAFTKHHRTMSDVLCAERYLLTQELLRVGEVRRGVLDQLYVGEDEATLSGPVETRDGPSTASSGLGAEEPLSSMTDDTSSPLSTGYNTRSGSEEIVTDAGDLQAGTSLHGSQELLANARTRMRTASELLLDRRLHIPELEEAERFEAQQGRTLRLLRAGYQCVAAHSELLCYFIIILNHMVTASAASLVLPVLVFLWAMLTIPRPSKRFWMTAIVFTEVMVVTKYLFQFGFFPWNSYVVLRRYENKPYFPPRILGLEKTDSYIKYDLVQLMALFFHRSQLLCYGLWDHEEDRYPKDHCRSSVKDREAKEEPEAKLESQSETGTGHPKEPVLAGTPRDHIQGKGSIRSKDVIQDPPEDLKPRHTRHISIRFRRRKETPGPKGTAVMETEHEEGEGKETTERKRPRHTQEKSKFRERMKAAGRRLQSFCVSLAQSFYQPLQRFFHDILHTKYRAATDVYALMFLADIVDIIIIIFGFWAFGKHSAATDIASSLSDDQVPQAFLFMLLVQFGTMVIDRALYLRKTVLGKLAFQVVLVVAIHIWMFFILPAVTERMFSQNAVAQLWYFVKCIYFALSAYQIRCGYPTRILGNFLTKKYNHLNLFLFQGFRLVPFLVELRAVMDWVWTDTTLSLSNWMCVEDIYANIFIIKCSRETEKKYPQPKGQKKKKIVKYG
Source text: Since Jedi1/2 act through the extracellular side of Piezo1, we asked if it might bind to the C-terminal extracellular domain (CED; 2214–2457) that trimerizes to form the extracellular Cap-structure of the central ion-conducting pore module (Fig. 1)[8]. However, none of Jedi1/2, Yoda1, and the control compound bound to the purified CED proteins (without the use of the C12E10 detergent since they are soluble proteins; Fig. 4a–h). We next purified the large N-terminal fragment containing residues 1–2190 [mPiezo1(1–2190)] using the same purification procedure for mPiezo1. […] We used the FPLC fraction corresponding to the trimeric proteins (peak 2 of Supplementary Fig. 2d) for SPR binding assay. […] Given that Jedi1/2 function through the extracellular side, we propose that Jedi1/2 bind to the extracellular loop regions of the blade. The distant location of the Jedi action region relative to the pore indicates a distinct long-distance allosteric gating of Piezo1.
as §1, with “detergent.” for “detergent. During the immobilization process, the CM5 sensor was activated with NHS first, allowing the amine-containing proteins to be coupled to the sensor through NHS.”
as §2

[4] = compound applied to the extracellular side

Structure (SMILES)	inactivation tau of poking-induced currents (mPiezo1 [1]; [4])	poking-induced maximal currents (Imax) (mPiezo1 [1]; [4])	effect on poking currents and inactivation (mPiezo1 [1])	increase of poking-induced whole-cell currents (mPiezo1 [1]) [folds]	Kd (mPiezo1 [2]) [µM]	binding to purified CED proteins (SPR) [3]	binding to mPiezo1(1–2190) proteins (SPR) (mPiezo1(1–2190))
Cc1oc(-c2ccccc2)cc1C(=O)O [Jedi1]	slowed the inactivation tau	significantly enhanced	had no effect	3.8 ± 0.5	2750 ± 425	none	virtually identical fashion as to mPiezo1
Cc1oc(-c2cccs2)cc1C(=O)O [Jedi2]				5.4 ± 0.7	2770 ± 178	none	virtually identical fashion as to mPiezo1
Clc1cccc(Cl)c1CSc1nnc(-c2cnccn2)s1 [Yoda1, reference compound]			remained effective in enhancing the poking currents and slowing the inactivation		45.6 ± 14.3	none	virtually identical fashion as to mPiezo1
